We go through 2 compounds from the NIST ThermoML archive (doi:10.1016/j.jct.2008.07.019).

The data set is described as follows: cn = amount concentration of the nth substance listed, in mol/dm3. The note with it: 101 kPa, Liquid, c1 = 2.

As usually defined, the viscosity is the internal friction of a fluid under shear.

Values joined by “and” are separate entries in the source; they are usually repeats but may differ in a detail not shown here. Identical values can stand only once. Numbers after ± are expanded uncertainties.

Take `O=[N+]([O-])[O-].[K+]` [potassium nitrate] + O: the viscosity by setting is: (298.15 K) 0.9118 ± 0.023 mPa·s; (303.15 K) 0.8404 ± 0.021 mPa·s; (308.15 K) 0.7619 ± 0.02 mPa·s; (313.15 K) 0.6989 ± 0.018 mPa·s; (318.15 K) 0.64 ± 0.017 mPa·s; (323.15 K) 0.5929 ± 0.016 mPa·s and 0.5829 ± 0.016 mPa·s.
Take `[Cl-].[K+]` [potassium chloride] + O: the viscosity is given as 0.887 ± 0.022 mPa·s (298.15 K); 0.8552 ± 0.022 mPa·s (303.15 K); 0.7658 ± 0.02 mPa·s (308.15 K); 0.6995 ± 0.018 mPa·s (313.15 K); 0.6492 ± 0.017 mPa·s (318.15 K); 0.6037 ± 0.016 mPa·s (323.15 K).
